Measured values from the supplement of paper PMC10307832.

Columns and labels:
Experiment in all cases: relative viability (nuclei count vs DMSO), 5 days (fraction); higher = more cells survive
AZ505 + Olaparib = compound: C1CCC(CC1)N(CCNCCC2=C3C(=C(C=C2)O)NC(=O)CO3)C(=O)CCNCCC4=CC(=C(C=C4)Cl)Cl [AZ505] + O=C(c1cc(Cc2n[nH]c(=O)c3ccccc23)ccc1F)N1CCN(C(=O)C2CC2)CC1 [Olaparib] (partner 8 µM)
How it was run: (§1)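 For relative viability, nuclei counts in treated wells were divided by those in vehicle wells. Lung cancer cell lines had been pin-tool dosed in 1536-well plates the day after seeding and cultured for 5 days, then fixed and stained in one step (final 0.05% Triton X-100, 1% formaldehyde, 1 ug/ml Hoechst) and imaged at 4×. Doses were one drug alone or a fixed anchor-drug dose plus five library-drug doses (not always all listed) in √10 steps, and values are duplicate-plate medians.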

AZ505 + Pemetrexed = compound: C1CCC(CC1)N(CCNCCC2=C3C(=C(C=C2)O)NC(=O)CO3)C(=O)CCNCCC4=CC(=C(C=C4)Cl)Cl [AZ505] + Nc1nc2[nH]cc(CCc3ccc(C(=O)N[C@@H](CCC(=O)O)C(=O)O)cc3)c2c(=O)[nH]1 [Pemetrexed] (partner 0.2 µM)
How it was run: as §1

Dactolisib + Vorinostat = compound: Cn1c(=O)n(-c2ccc(C(C)(C)C#N)cc2)c2c3cc(-c4cnc5ccccc5c4)ccc3ncc21 [Dactolisib] + O=C(CCCCCCC(=O)Nc1ccccc1)NO [Vorinostat] (partner 1 µM)
How it was run: as §1

Dactolisib + Pictilisib = compound: Cn1c(=O)n(-c2ccc(C(C)(C)C#N)cc2)c2c3cc(-c4cnc5ccccc5c4)ccc3ncc21 [Dactolisib] + CS(=O)(=O)N1CCN(Cc2cc3nc(-c4cccc5[nH]ncc45)nc(N4CCOCC4)c3s2)CC1 [Pictilisib] (partner 1 µM)
How it was run: as §1

For HCC-78, the relative viability (AZ505 + Olaparib; first compound 0.8 µM) was 0.878, the relative viability (AZ505 + Olaparib; first compound 2.53 µM) was 0.829 and the relative viability (AZ505 + Olaparib; first compound 8 µM) was 1.03. For the same cell line, the relative viability (AZ505 + Pemetrexed; first compound 0.8 µM) was 0.916, the relative viability (AZ505 + Pemetrexed; first compound 2.53 µM) was 0.904 and the relative viability (AZ505 + Pemetrexed; first compound 8 µM) was 0.918. For the same cell line, the relative viability (Dactolisib + Vorinostat; first compound 0.002 µM) was 0.33, the relative viability (Dactolisib + Vorinostat; first compound 0.006325 µM) was 0.431 and the relative viability (Dactolisib + Vorinostat; first compound 0.02 µM) was 0.415. It also gave a relative viability (Dactolisib + Vorinostat; first compound 0.06325 µM) of 0.367, a relative viability (Dactolisib + Vorinostat; first compound 0.2 µM) of 0.303 and a relative viability (Dactolisib + Pictilisib; first compound 0.002 µM) of 0.225. For the same cell line, the relative viability (Dactolisib + Pictilisib; first compound 0.006325 µM) was 0.22, the relative viability (Dactolisib + Pictilisib; first compound 0.02 µM) was 0.195 and the relative viability (Dactolisib + Pictilisib; first compound 0.06325 µM) was 0.206. For the same cell line, the relative viability (Dactolisib + Pictilisib; first compound 0.2 µM) was 0.193.

HCC-366 showed a relative viability (AZ505 + Olaparib; first compound 0.08 µM) of 0.277, a relative viability (AZ505 + Olaparib; first compound 0.253 µM) of 0.439 and a relative viability (AZ505 + Olaparib; first compound 0.8 µM) of 0.315. The relative viability (AZ505 + Olaparib; first compound 2.53 µM) was 0.412, the relative viability (AZ505 + Olaparib; first compound 8 µM) was 0.406 and the relative viability (AZ505 + Pemetrexed; first compound 0.08 µM) was 0.142. It also gave a relative viability (AZ505 + Pemetrexed; first compound 0.253 µM) of 0.174, a relative viability (AZ505 + Pemetrexed; first compound 0.8 µM) of 0.179 and a relative viability (AZ505 + Pemetrexed; first compound 2.53 µM) of 0.2. It also gave a relative viability (AZ505 + Pemetrexed; first compound 8 µM) of 0.16, a relative viability (Dactolisib + Vorinostat; first compound 0.002 µM) of 0.285 and a relative viability (Dactolisib + Vorinostat; first compound 0.006325 µM) of 0.407. The relative viability (Dactolisib + Vorinostat; first compound 0.02 µM) was 0.325, the relative viability (Dactolisib + Vorinostat; first compound 0.06325 µM) was 0.0887 and the relative viability (Dactolisib + Vorinostat; first compound 0.2 µM) was 0.0549. For the same cell line, the relative viability (Dactolisib + Pictilisib; first compound 0.002 µM) was 0.201, the relative viability (Dactolisib + Pictilisib; first compound 0.006325 µM) was 0.147 and the relative viability (Dactolisib + Pictilisib; first compound 0.02 µM) was 0.124. The relative viability (Dactolisib + Pictilisib; first compound 0.06325 µM) was 0.0657 and the relative viability (Dactolisib + Pictilisib; first compound 0.2 µM) was 0.102.

HCC-827 showed a relative viability (AZ505 + Olaparib; first compound 0.08 µM) of 0.629, a relative viability (AZ505 + Olaparib; first compound 0.253 µM) of 0.662 and a relative viability (AZ505 + Olaparib; first compound 0.8 µM) of 0.628. For the same cell line, the relative viability (AZ505 + Olaparib; first compound 2.53 µM) was 0.646, the relative viability (AZ505 + Olaparib; first compound 8 µM) was 0.711 and the relative viability (AZ505 + Pemetrexed; first compound 0.08 µM) was 0.288. The relative viability (AZ505 + Pemetrexed; first compound 0.253 µM) was 0.269, the relative viability (AZ505 + Pemetrexed; first compound 0.8 µM) was 0.288 and the relative viability (AZ505 + Pemetrexed; first compound 2.53 µM) was 0.264. For the same cell line, the relative viability (AZ505 + Pemetrexed; first compound 8 µM) was 0.266, the relative viability (Dactolisib + Vorinostat; first compound 0.002 µM) was 0.966 and the relative viability (Dactolisib + Vorinostat; first compound 0.006325 µM) was 0.934. It also gave a relative viability (Dactolisib + Vorinostat; first compound 0.02 µM) of 0.785, a relative viability (Dactolisib + Vorinostat; first compound 0.06325 µM) of 0.498 and a relative viability (Dactolisib + Vorinostat; first compound 0.2 µM) of 0.82. The relative viability (Dactolisib + Pictilisib; first compound 0.002 µM) was 1.28, the relative viability (Dactolisib + Pictilisib; first compound 0.006325 µM) was 0.997 and the relative viability (Dactolisib + Pictilisib; first compound 0.02 µM) was 0.932. For the same cell line, the relative viability (Dactolisib + Pictilisib; first compound 0.06325 µM) was 0.654 and the relative viability (Dactolisib + Pictilisib; first compound 0.2 µM) was 0.63.

HOP-62 showed a relative viability (AZ505 + Olaparib; first compound 0.253 µM) of 0.374, a relative viability (AZ505 + Olaparib; first compound 0.8 µM) of 0.386 and a relative viability (AZ505 + Olaparib; first compound 2.53 µM) of 0.387. The relative viability (AZ505 + Olaparib; first compound 8 µM) was 0.45, the relative viability (AZ505 + Pemetrexed; first compound 0.08 µM) was 0.325 and the relative viability (AZ505 + Pemetrexed; first compound 0.253 µM) was 0.443. For the same cell line, the relative viability (AZ505 + Pemetrexed; first compound 0.8 µM) was 0.327, the relative viability (AZ505 + Pemetrexed; first compound 2.53 µM) was 0.393 and the relative viability (AZ505 + Pemetrexed; first compound 8 µM) was 0.379. For the same cell line, the relative viability (Dactolisib + Vorinostat; first compound 0.002 µM) was 0.572, the relative viability (Dactolisib + Vorinostat; first compound 0.006325 µM) was 0.541 and the relative viability (Dactolisib + Vorinostat; first compound 0.02 µM) was 0.543. The relative viability (Dactolisib + Vorinostat; first compound 0.06325 µM) was 0.177, the relative viability (Dactolisib + Vorinostat; first compound 0.2 µM) was 0.219 and the relative viability (Dactolisib + Pictilisib; first compound 0.002 µM) was 0.967. For the same cell line, the relative viability (Dactolisib + Pictilisib; first compound 0.006325 µM) was 0.58, the relative viability (Dactolisib + Pictilisib; first compound 0.02 µM) was 0.604 and the relative viability (Dactolisib + Pictilisib; first compound 0.06325 µM) was 0.236. For the same cell line, the relative viability (Dactolisib + Pictilisib; first compound 0.2 µM) was 0.254.

With IA-LM the relative viability (AZ505 + Olaparib; first compound 0.08 µM) was 0.78, the relative viability (AZ505 + Olaparib; first compound 0.253 µM) was 0.846 and the relative viability (AZ505 + Olaparib; first compound 0.8 µM) was 0.807. It also gave a relative viability (AZ505 + Olaparib; first compound 2.53 µM) of 0.902, a relative viability (AZ505 + Olaparib; first compound 8 µM) of 0.889 and a relative viability (Dactolisib + Vorinostat; first compound 0.002 µM) of 1. The relative viability (Dactolisib + Vorinostat; first compound 0.006325 µM) was 0.903, the relative viability (Dactolisib + Vorinostat; first compound 0.02 µM) was 0.817 and the relative viability (Dactolisib + Vorinostat; first compound 0.06325 µM) was 0.426. The relative viability (Dactolisib + Vorinostat; first compound 0.2 µM) was 0.267, the relative viability (Dactolisib + Pictilisib; first compound 0.002 µM) was 0.371 and the relative viability (Dactolisib + Pictilisib; first compound 0.006325 µM) was 0.331. It also gave a relative viability (Dactolisib + Pictilisib; first compound 0.02 µM) of 0.219, a relative viability (Dactolisib + Pictilisib; first compound 0.06325 µM) of 0.116 and a relative viability (Dactolisib + Pictilisib; first compound 0.2 µM) of 0.0809.

For LC-2-ad, the relative viability (AZ505 + Olaparib; first compound 0.08 µM) was 0.683, the relative viability (AZ505 + Olaparib; first compound 0.253 µM) was 0.696 and the relative viability (AZ505 + Olaparib; first compound 0.8 µM) was 0.648. The relative viability (AZ505 + Olaparib; first compound 2.53 µM) was 0.713, the relative viability (AZ505 + Olaparib; first compound 8 µM) was 0.741 and the relative viability (AZ505 + Pemetrexed; first compound 0.08 µM) was 0.279. It also gave a relative viability (AZ505 + Pemetrexed; first compound 0.253 µM) of 0.278, a relative viability (AZ505 + Pemetrexed; first compound 0.8 µM) of 0.294 and a relative viability (AZ505 + Pemetrexed; first compound 2.53 µM) of 0.306. It also gave a relative viability (AZ505 + Pemetrexed; first compound 8 µM) of 0.258, a relative viability (Dactolisib + Vorinostat; first compound 0.002 µM) of 0.857 and a relative viability (Dactolisib + Vorinostat; first compound 0.006325 µM) of 0.699. It also gave a relative viability (Dactolisib + Vorinostat; first compound 0.02 µM) of 0.749, a relative viability (Dactolisib + Vorinostat; first compound 0.06325 µM) of 0.524 and a relative viability (Dactolisib + Vorinostat; first compound 0.2 µM) of 0.496. It also gave a relative viability (Dactolisib + Pictilisib; first compound 0.002 µM) of 0.291, a relative viability (Dactolisib + Pictilisib; first compound 0.02 µM) of 0.428 and a relative viability (Dactolisib + Pictilisib; first compound 0.06325 µM) of 0.389. It also gave a relative viability (Dactolisib + Pictilisib; first compound 0.2 µM) of 0.262.

LCLC-97TM1 was tested, and the relative viability (AZ505 + Olaparib; first compound 0.08 µM) was 0.326, the relative viability (AZ505 + Olaparib; first compound 0.253 µM) was 0.471 and the relative viability (AZ505 + Olaparib; first compound 0.8 µM) was 0.369. The relative viability (AZ505 + Olaparib; first compound 8 µM) was 0.595, the relative viability (AZ505 + Pemetrexed; first compound 0.08 µM) was 0.161 and the relative viability (AZ505 + Pemetrexed; first compound 0.253 µM) was 0.253. The relative viability (AZ505 + Pemetrexed; first compound 0.8 µM) was 0.193, the relative viability (AZ505 + Pemetrexed; first compound 8 µM) was 0.175 and the relative viability (Dactolisib + Vorinostat; first compound 0.002 µM) was 0.615. For the same cell line, the relative viability (Dactolisib + Vorinostat; first compound 0.006325 µM) was 0.655, the relative viability (Dactolisib + Vorinostat; first compound 0.02 µM) was 0.612 and the relative viability (Dactolisib + Vorinostat; first compound 0.06325 µM) was 0.251. For the same cell line, the relative viability (Dactolisib + Vorinostat; first compound 0.2 µM) was 0.311, the relative viability (Dactolisib + Pictilisib; first compound 0.002 µM) was 0.252 and the relative viability (Dactolisib + Pictilisib; first compound 0.006325 µM) was 0.151. It also gave a relative viability (Dactolisib + Pictilisib; first compound 0.02 µM) of 0.169, a relative viability (Dactolisib + Pictilisib; first compound 0.06325 µM) of 0.145 and a relative viability (Dactolisib + Pictilisib; first compound 0.2 µM) of 0.12.

LCLC-103H was tested, and the relative viability (AZ505 + Olaparib; first compound 0.08 µM) was 0.677, the relative viability (AZ505 + Olaparib; first compound 0.253 µM) was 0.729 and the relative viability (AZ505 + Olaparib; first compound 0.8 µM) was 0.729. For the same cell line, the relative viability (AZ505 + Olaparib; first compound 2.53 µM) was 0.734, the relative viability (AZ505 + Olaparib; first compound 8 µM) was 0.717 and the relative viability (AZ505 + Pemetrexed; first compound 0.08 µM) was 0.453. The relative viability (AZ505 + Pemetrexed; first compound 0.253 µM) was 0.491, the relative viability (AZ505 + Pemetrexed; first compound 0.8 µM) was 0.457 and the relative viability (AZ505 + Pemetrexed; first compound 2.53 µM) was 0.519. It also gave a relative viability (AZ505 + Pemetrexed; first compound 8 µM) of 0.448, a relative viability (Dactolisib + Vorinostat; first compound 0.002 µM) of 0.82 and a relative viability (Dactolisib + Vorinostat; first compound 0.006325 µM) of 0.863. It also gave a relative viability (Dactolisib + Vorinostat; first compound 0.02 µM) of 0.719, a relative viability (Dactolisib + Vorinostat; first compound 0.06325 µM) of 0.443 and a relative viability (Dactolisib + Vorinostat; first compound 0.2 µM) of 0.412. For the same cell line, the relative viability (Dactolisib + Pictilisib; first compound 0.002 µM) was 0.611, the relative viability (Dactolisib + Pictilisib; first compound 0.006325 µM) was 0.583 and the relative viability (Dactolisib + Pictilisib; first compound 0.02 µM) was 0.602. The relative viability (Dactolisib + Pictilisib; first compound 0.06325 µM) was 0.577 and the relative viability (Dactolisib + Pictilisib; first compound 0.2 µM) was 0.498.
